According to patent US12281299B2, “Control of nitrogen fixation in rhizobia that associate with cereals” (Massachusetts Institute of Technology, priority 2019, dated 2025):

Columns and labels:
nifH promoter = experiment: nifH expression analysis (PnifH-sfgfp, flow cytometry), A. caulinodans; format: cell-based, Azorhizobium caulinodans; conditions: nifA and rpoN under IPTG control, condition used for nitrogen fixation
Procedure: Flow cytometry. Cultures with fluorescence proteins were analyzed by flow cytometry using a BD Biosciences LSRII Forterssa analyzer with a 488 nm laser and 510/20-nm band pass filter for GFP and a 561 nm laser and 610/20 nm band pass filter for mCherry and mRFP1. Cells were diluted into 96-well plates containing phosphate buffered saline solution (PBS) supplemented with 2 mg/mL kanamycin after incubation. Cells were collected over 20,000 events which were gated using forward and side scatter to remove background events using FlowJo (TreeStar Inc., Ashland, Oreg.). The median fluorescence from cytometry histograms was calculated for all samples. The median autofluorescence was subtracted from the median fluorescence and reported as the fluorescence value in arbitrary unit (au).
nifH expression analysis. Complementation of NifA was tested using plasmid pMR-128 to 130 that contains the sfgfp fused to the nifH promoter in the A. caulinodans ΔnifA mutant. The inducible NifA/RpoN expression was provided by the plasmid pMR-121 into which sfgfp driven by the nifH promoter was added to analyze MN promoter activity, yielding pMR-131 (FIG. 29). […] Each of the plasmids was mobilized into the A. caulinodans ΔnifA mutant, which was grown following the same protocol as used for nitrogenase activity (described herein). […]

P. protegens Pf-5 [1] = experiment: Genetic part characterization for P. protegens (promoters, RBSs, terminators, inducible systems; fluorescence reporter, flow cytometry); format: cell-based, Pseudomonas protegens
Excerpt: Construction and characterization genetic parts for P. protegens. Genetic part libraries were built on a pRO1600-ori plasmid pMR-2 using Gibson assembly (New England Biolabs, Cat # E2611). The fluorescence proteins, GFPmut3b and mRFP1 were used as reporters. The Anderson promoter library on the BioBricks Registry were utilized for the characterization of constitutive promoters (FIGS. 11A-11C). The following combinations of cognate regulators and inducible promoters were characterized. IPTG inducible LacI-Ptac, DAPG inducible PhlF-PPhl, aTc inducible TetR-PTet, 3OC6HSL inducible LuxR-PLux, arabinose inducible AraC-PBAD, cuminic acid inducible CymR-PCym, and naringenin inducible FdeR-PFde were optimized (FIGS. 15A-15C). […] RBS library for GFP was designed using the RBS library calculator at the highest-resolution mode, and the 3′ end of the 16S rRNA sequences were adjusted according to the species (3′-ACCTCCTTA-5′ for P. protegens Pf-5). Terminators for T7 RNAP were characterized by placing a terminator between two fluorescence reporters expressed from a single T7 wild-type promoter located upstream of the first fluorescence protein GFP. The expression of the two fluorescence proteins is enabled by an IPTG-inducible T7 RNAP expression system of the controller strain MR7 (FIGS. 13A-13B). All genetic parts for P. protegens Pf-5 were characterized as follows.

P. protegens Pf-5 [2] = experiment: Characterization of genomically integrated controllers (T7 promoter GFP reporter), P. protegens Pf-5; format: cell-based, Pseudomonas protegens; conditions: P. protegens Pf-5 controller strain MR7, reporter plasmid pMR-80
Excerpt: Genomic integration and characterization of controllers. The mini-Tn7 insertion system was used to introduce a controller into the genome of P. protegens Pf-5. The IPTG-inducible T7 RNAP expression system and a tetracycline resistant marker tetA was placed between two Tn7 ends (Tn7L and Tn7R). The controller plasmid pMR-85 was introduced into P. protegens Pf-5 by double transformation with pTNS3 encoding the TnsABCD transposase. A genomically-integrated controller located 25 bp downstream of the stop codon of glmS was confirmed by PCR and sequencing. A markerless insertion method using homologous recombination was employed in R. sp. IRBG74. A controller encoding inducible T7 RNAP system flanked by two homology fragments that enables the replacement of recA was cloned into a suicide plasmid. These controller plasmids (IPTG-inducible, pMR82-84; DAPG-inducible, pMR85) in E. coli was mobilized into R. sp. IRBG74 MR18 (AhsdR. Anif) by triparental mating, generating the controller strains (MR19, 20, 21 and 22, respectively). The controller integration in the genome was confirmed by gentamicin sensitivity and diagnostic PCR. All controllers were characterized in a manner identical to that described in genetic part characterization.

A. caulinodans ORS571 = format: cell-based, Azorhizobium caulinodans; conditions: sensor controlling NifA(L94Q/D95Q)/RpoN expression in A. caulinodans
Procedure: Nitrogenase assays (A. caulinodans and P. stutzeri). Cultures were initiated by inoculating a single colony into 0.2 mL of TY medium supplemented with appropriate antibiotics in 96-deepwell plates and grown overnight at 37° C. and 30° C. for A. caulinodans and P. stutzeri, respectively, 900 rpm in a Multitron incubator. 5 μl of overnight cultures was diluted into 500 μl of UMS medium with 30 mM lactate and 10 mM NH4Cl and appropriate antibiotics in 96-deepwell and incubated for 24 h at 37° C. and 30° C. for A. caulinodans and P. stutzeri, respectively, 900 rpm in a Multitron incubator. Cultures were diluted to an OD600 of 0.4 into 2 mL of UMS medium plus 30 mM lactate supplemented with appropriate antibiotics and an inducer (if necessary) in 10 mL glass vials with PTFE-silicone septa screw caps. Headspace in the vials was replaced with 99% argon plus 1% oxygen gas using a vacuum manifold. Acetylene was injected to 10% (vol/vol) into each culture vial to begin the reaction. The acetylene reduction was carried out for 20 h at 30° C. with shaking at 250 rpm, followed by quenching via the addition of 0.5 mL of 4 M NaOH to each vial.
Ethylene quantification. Ethylene production was analyzed by gas chromatography using an Agilent 7890A GC system (Agilent Technologies, Inc., CA USA) equipped with a PAL headspace autosampler and flame ionization detector as follows. An aliquot of 0.5 mL headspace preincubated to 35° C. for 30 s was injected and separated for 4 min on a GS-CarbonPLOT column (0.32 mm×30 m, 3 microns; Agilent) at 60° C. and a He flow rate of 1.8 mL/min. Detection occurred in a FID heated to 300° C. with a gas flow of 35 mL/min H2 and 400 mL/min air. Acetylene and ethylene were detected at 3.0 min and 3.7 min after injection, respectively. Ethylene production was quantified by integrating the 3.7 min peak using Agilent GC/MSD ChemStation Software.

R. sp. IRBG74 = experiment: Nitrogenase assays (Rhizobia strains), acetylene reduction; format: cell-based, Rhizobium sp.; conditions: DAPG-inducible T7 RNAP driving v3.2 refactored pathway in R. sp. IRBG74
Procedure: Nitrogenase assays (Rhizobia strains). […] 5 μl of overnight cultures was diluted into 500 μl of UMS medium with 30 mM succinate, 10 mM sucrose, and 10 mM NH4Cl and appropriate antibiotics in 96-deepwell and incubated for 24 h at 30° C., 900 rpm in a Multitron incubator. Cultures were diluted to an OD600 of 0.4 into 2 mL of UMS medium plus 30 mM succinate and 10 mM sucrose supplemented with appropriate antibiotics, 1.43 mM serine and an inducer (if necessary) in 10 mL glass vials with PTFE-silicone septa screw caps. Headspace in the vials was replaced with 99% argon and 1% oxygen gas using a vacuum manifold. Acetylene was injected to 10% (vol/vol) into each culture vial to begin the reaction. […]
Ethylene quantification. Ethylene production was analyzed by gas chromatography using an Agilent 7890A GC system (Agilent Technologies, Inc., CA USA) equipped with a PAL headspace autosampler and flame ionization detector as follows. […] Acetylene and ethylene were detected at 3.0 min and 3.7 min after injection, respectively. Ethylene production was quantified by integrating the 3.7 min peak using Agilent GC/MSD ChemStation Software.
The bacteria were grown in appropriate media, including antibiotics, and then evaluated for nitrogenase activity using an acetylene reduction assay (see Methods and Materials Section). […]

[3] = tested on: E. coli Marionette MG1655; conditions: 1 mM choline-Cl
Procedure: The reporter plasmid pMR-120 in which gfpmut3b is fused to the PT7(P2) promoter (FIGS. 28A-28C) was co-transformed to analyze the response functions of each of the 12 T7 RNAP controller plasmids. To characterize controllers, single colonies were inoculated into 1 ml LB supplemented with antibiotics in 96-deepwell plates (USA Scientific, Cat #18962110) and grown overnight at 30° C., 900 rpm in a Multitron incubator (INFORS HT, MD). 0.5 μl of overnight cultures was diluted into 200 μl of LB with antibiotics and appropriate inducers in 96-well plates (Thermo Scientific, Cat #12565215) and incubated for 6 h at 30° C., 1,000 rpm in an ELMI DTS-4 shaker (ELMI, CA). After growth, 4 μl of culture sample was diluted into 150 μl PBS with 2 mg/mL kanamycin for flow cytometry analysis.
Flow cytometry. Cultures with fluorescence proteins were analyzed by flow cytometry using a BD Biosciences LSRII Forterssa analyzer with a 488 nm laser and 510/20-nm band pass filter for GFP and a 561 nm laser and 610/20 nm band pass filter for mCherry and mRFP1. […] The median fluorescence from cytometry histograms was calculated for all samples. The median autofluorescence was subtracted from the median fluorescence and reported as the fluorescence value in arbitrary unit (au).

Compound: CC(C)S[C@@H]1O[C@H](CO)[C@H](O)[C@H](O)[C@H]1O [IPTG, Isopropyl-beta-D-thiogalactoside]
- dynamic range of response function from the nifH promoter (nifH promoter): 45 fold
- expression range of IPTG-inducible system (P. protegens Pf-5 [1]; Ptac promoter and Lad (Q18M/A47V/F161Y) protein, 1 mM IPTG, P. protegens Pf-5): 110 fold
- activation of GFP expression by the T7 promoter (P. protegens Pf-5 [2]): 96 fold

Compound: N=C(N)NCCCC(NC(CCC(=O)O)C(=O)O)C(=O)O (stereo not drawn) [nopaline, Nopaline]
- dynamic range of nitrogenase activity (A. caulinodans ORS571): 412 fold

Compound: CC(=O)c1c(O)cc(O)c(C(C)=O)c1O [DAPG, 2,4-Diacetylphloroglucinol, reference compound]
- induction of nitrogenase activity (R. sp. IRBG74): 9 fold
- function of inducible system (P. protegens Pf-5 [1]; P. protegens Pf-5, pRO1600 plasmid): functional

Compound: O=C([O-])c1ccccc1O.[Na+] [salicylic acid, Salicylic acid sodium salt]
- dynamic range of nitrogenase activity (A. caulinodans ORS571): 1000 fold

Compound: CC(NC(CCCNC(=N)N)C(=O)O)C(=O)O (stereo not drawn) [octopine, Octopine]
- nitrogenase activity higher than the wild-type (A. caulinodans ORS571): 40%

Compound: C[N+](C)(C)CCO.[Cl-] [choline-Cl, Choline chloride]
- inducibility of the T7 promoter by controller plasmid [3]: not inducible
